Data: ChEMBL document CHEMBL1149262, “Monoamine transporter binding, locomotor activity, and drug discrimination properties of 3-(4-substituted-phenyl)tropane-2-carboxylic acid methyl ester isomers” (J Med Chem, 2004)
pIC50, pKi: −log10 of the molar value. Activity calls are given as the source filed them. The rule behind the calls is not given here.

Experiments:
Mus musculus [1] = experiment: Locomotor activity in CD1 mouse assessed as stimulation at 0.3 mg/kg, ip after 1 hr relative to control; type: functional; settings: route intraperitoneal
Mus musculus [2] = experiment: Locomotor activity in CD1 mouse assessed as stimulation at 0.3 mg/kg, ip after 2 hrs relative to control; type: functional; settings: route intraperitoneal
Mus musculus [3] = experiment: Locomotor activity in CD1 mouse assessed as stimulation at 0.3 mg/kg, ip after 3 hrs relative to control; type: functional; settings: route intraperitoneal
Mus musculus [4] = experiment: Locomotor activity in CD1 mouse assessed as stimulation at 0.3 mg/kg, ip after 4 hrs relative to control; type: functional; settings: route intraperitoneal
Mus musculus [5] = experiment: Locomotor activity in CD1 mouse assessed as stimulation at 1 mg/kg, ip after 1 hr relative to control; type: functional; settings: route intraperitoneal
Mus musculus [6] = experiment: Locomotor activity in CD1 mouse assessed as stimulation at 1 mg/kg, ip after 2 hrs relative to control; type: functional; settings: route intraperitoneal
Mus musculus [7] = experiment: Locomotor activity in CD1 mouse assessed as stimulation at 1 mg/kg, ip after 3 hrs relative to control; type: functional; settings: route intraperitoneal
Mus musculus [8] = experiment: Locomotor activity in CD1 mouse assessed as stimulation at 1 mg/kg, ip after 4 hrs relative to control; type: functional; settings: route intraperitoneal
Mus musculus [9] = experiment: Locomotor activity in CD1 mouse assessed as stimulation at 0.1 mg/kg, ip after 1 hr relative to control; type: functional; settings: route intraperitoneal
Mus musculus [10] = experiment: Locomotor activity in CD1 mouse assessed as stimulation at 0.1 mg/kg, ip after 2 hrs relative to control; type: functional; settings: route intraperitoneal
Mus musculus [11] = experiment: Locomotor activity in CD1 mouse assessed as stimulation at 0.1 mg/kg, ip after 3 hrs relative to control; type: functional; settings: route intraperitoneal
Mus musculus [12] = experiment: Locomotor activity in CD1 mouse assessed as stimulation at 0.1 mg/kg, ip after 4 hrs relative to control; type: functional; settings: route intraperitoneal
Rattus norvegicus [13] = experiment: Cocaine discrimination in ip dosed CD Albino rat; type: functional
Rattus norvegicus [14] = experiment: Drug discrimination effect in CD Albino rat assessed as percent of rat choosing cocaine lever at 0.17 mg/kg, ip; type: functional; settings: route intraperitoneal
Rattus norvegicus [15] = experiment: Drug discrimination effect in CD Albino rat assessed as percent of rat choosing cocaine lever at 0.3 mg/kg, ip; type: functional; settings: route intraperitoneal
Mus musculus [16] = experiment: Activity in CD1 mouse assessed as hyperactivity at 1 mg/kg, ip after 4 hrs; type: functional, organism-based; parameters: dose 1 mg/kg
Mus musculus [17] = experiment: Activity in CD1 mouse assessed as stereotypy at 1 mg/kg, ip after 4 hrs; type: functional, organism-based; parameters: dose 1 mg/kg
Mus musculus [18] = experiment: Activity in CD1 mouse assessed as circling at 1 mg/kg, ip after 4 hrs; type: functional, organism-based; parameters: dose 1 mg/kg
Mus musculus [19] = experiment: Activity in CD1 mouse assessed as stereotypy at 10 mg/kg, ip after 4 hrs; type: functional, organism-based; parameters: dose 10 mg/kg
Mus musculus [20] = experiment: Activity in CD1 mouse assessed as stereotypy at 100 mg/kg, ip after 4 hrs; type: functional, organism-based; parameters: dose 100 mg/kg
Mus musculus [21] = experiment: Activity in CD1 mouse assessed as straub tail at 100 mg/kg, ip after 4 hrs; type: functional, organism-based; parameters: dose 100 mg/kg
Mus musculus [22] = experiment: Activity in CD1 mouse assessed as hind limb splay at 100 mg/kg, ip after 4 hrs; type: functional, organism-based; parameters: dose 100 mg/kg; settings: Hindlimb
[23] = molecular target: Sodium-dependent dopamine transporter (Homo sapiens, UniProt Q01959); experiment: Displacement of [3H]WIN-35428 from DAT
Mus musculus [24] = experiment: Locomotor activity in ip dosed CD1 mouse in peak hour; type: functional
Mus musculus [25] = experiment: Locomotor activity in CD1 mouse assessed as stimulation at 3 mg/kg, ip after 1 hr relative to control; type: functional; settings: route intraperitoneal
Mus musculus [26] = experiment: Locomotor activity in CD1 mouse assessed as stimulation at 3 mg/kg, ip after 2 hrs relative to control; type: functional; settings: route intraperitoneal
Mus musculus [27] = experiment: Locomotor activity in CD1 mouse assessed as stimulation at 3 mg/kg, ip after 3 hrs relative to control; type: functional; settings: route intraperitoneal
Mus musculus [28] = experiment: Locomotor activity in CD1 mouse assessed as stimulation at 3 mg/kg, ip after 4 hrs relative to control; type: functional; settings: route intraperitoneal
Rattus norvegicus [29] = experiment: Drug discrimination effect in CD Albino rat assessed as percent of rat choosing cocaine lever at 0.1 mg/kg, ip; type: functional; settings: route intraperitoneal
Rattus norvegicus [30] = experiment: Drug discrimination effect in CD Albino rat assessed as percent of rat choosing cocaine lever at 1 mg/kg, ip; type: functional; settings: route intraperitoneal
Rattus norvegicus [31] = experiment: Drug discrimination effect in CD Albino rat assessed as percent of rat choosing cocaine lever at 3 mg/kg, ip; type: functional; settings: route intraperitoneal
Rattus norvegicus [32] = experiment: Drug discrimination effect in CD Albino rat assessed as percent of rat choosing cocaine lever at 5.6 mg/kg, ip; type: functional; settings: route intraperitoneal
Rattus norvegicus [33] = experiment: Drug discrimination effect in CD Albino rat assessed as percent of rat choosing cocaine lever at 10 mg/kg, ip; type: functional; settings: route intraperitoneal
Mus musculus [34] = experiment: Activity in CD1 mouse assessed as circling at 10 mg/kg, ip after 4 hrs; type: functional, organism-based; parameters: dose 10 mg/kg
Mus musculus [35] = experiment: Activity in CD1 mouse assessed as slight or intermittent hyperactivity at 10 mg/kg, ip after 4 hrs; type: functional, organism-based; parameters: dose 10 mg/kg
Mus musculus [36] = experiment: Activity in CD1 mouse assessed as hyperactivity at 100 mg/kg, ip after 4 hrs; type: functional, organism-based; parameters: dose 100 mg/kg
Mus musculus [37] = experiment: Activity in CD1 mouse assessed as circling at 100 mg/kg, ip after 4 hrs; type: functional, organism-based; parameters: dose 100 mg/kg
[38] = molecular target: Sodium-dependent noradrenaline transporter (Homo sapiens, UniProt P23975); experiment: Displacement of [3H]nisoxetine from NET
Mus musculus [39] = experiment: Locomotor activity in CD1 mouse assessed as stimulation at 10 mg/kg, ip after 1 hr relative to control; type: functional; settings: route intraperitoneal
Mus musculus [40] = experiment: Locomotor activity in CD1 mouse assessed as stimulation at 10 mg/kg, ip after 2 hrs relative to control; type: functional; settings: route intraperitoneal
Mus musculus [41] = experiment: Locomotor activity in CD1 mouse assessed as stimulation at 10 mg/kg, ip after 3 hrs relative to control; type: functional; settings: route intraperitoneal
Mus musculus [42] = experiment: Locomotor activity in CD1 mouse assessed as stimulation at 10 mg/kg, ip after 4 hrs relative to control; type: functional; settings: route intraperitoneal
Mus musculus [43] = experiment: Locomotor activity in CD1 mouse assessed as stimulation at 30 mg/kg, ip after 1 hr relative to control; type: functional; settings: route intraperitoneal
Mus musculus [44] = experiment: Locomotor activity in CD1 mouse assessed as stimulation at 30 mg/kg, ip after 2 hrs relative to control; type: functional; settings: route intraperitoneal
Mus musculus [45] = experiment: Locomotor activity in CD1 mouse assessed as stimulation at 30 mg/kg, ip after 3 hrs relative to control; type: functional; settings: route intraperitoneal
Mus musculus [46] = experiment: Locomotor activity in CD1 mouse assessed as stimulation at 30 mg/kg, ip after 4 hrs relative to control; type: functional; settings: route intraperitoneal
Mus musculus [47] = experiment: Locomotor activity in CD1 mouse assessed as stimulation at 100 mg/kg, ip after 1 hr relative to control; type: functional; settings: route intraperitoneal
Mus musculus [48] = experiment: Locomotor activity in CD1 mouse assessed as stimulation at 100 mg/kg, ip after 2 hrs relative to control; type: functional; settings: route intraperitoneal
Mus musculus [49] = experiment: Locomotor activity in CD1 mouse assessed as stimulation at 100 mg/kg, ip after 3 hrs relative to control; type: functional; settings: route intraperitoneal
Mus musculus [50] = experiment: Locomotor activity in CD1 mouse assessed as stimulation at 100 mg/kg, ip after 4 hrs relative to control; type: functional; settings: route intraperitoneal
[51] = molecular target: Sodium-dependent serotonin transporter (Homo sapiens, UniProt P31645)
Description: Displacement of [3H]paroxetine from 5HTT

Rattus norvegicus [52] = experiment: Drug discrimination effect in CD Albino rat assessed as percent of rat choosing cocaine lever at 1.7 mg/kg, ip; type: functional; settings: route intraperitoneal
Mus musculus [53] = experiment: Activity in CD1 mouse assessed as hyperactivity at 10 mg/kg, ip after 4 hrs; type: functional, organism-based; parameters: dose 10 mg/kg
Mus musculus [54] = experiment: Activity in CD1 mouse assessed as convulsions at 100 mg/kg, ip after 4 hrs; type: functional, organism-based; parameters: dose 100 mg/kg

Sequence of Sodium-dependent serotonin transporter (P31645 whole entry): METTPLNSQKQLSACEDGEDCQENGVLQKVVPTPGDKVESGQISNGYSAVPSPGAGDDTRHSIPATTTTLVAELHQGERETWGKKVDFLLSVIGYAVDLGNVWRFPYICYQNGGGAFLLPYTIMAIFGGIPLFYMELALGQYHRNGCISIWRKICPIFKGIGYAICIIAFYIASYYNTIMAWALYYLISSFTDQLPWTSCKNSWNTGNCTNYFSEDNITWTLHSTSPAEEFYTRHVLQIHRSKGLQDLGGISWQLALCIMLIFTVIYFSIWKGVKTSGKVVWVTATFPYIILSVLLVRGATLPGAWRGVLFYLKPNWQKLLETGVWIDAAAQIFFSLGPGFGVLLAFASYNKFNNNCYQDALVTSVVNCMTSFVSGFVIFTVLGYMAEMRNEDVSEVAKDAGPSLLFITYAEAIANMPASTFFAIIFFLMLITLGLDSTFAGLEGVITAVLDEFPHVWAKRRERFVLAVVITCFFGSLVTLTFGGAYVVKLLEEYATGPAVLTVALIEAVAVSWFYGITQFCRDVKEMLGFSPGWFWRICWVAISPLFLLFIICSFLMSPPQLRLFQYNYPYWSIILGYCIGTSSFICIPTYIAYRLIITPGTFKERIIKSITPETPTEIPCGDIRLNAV
Sequence of Sodium-dependent noradrenaline transporter (P23975 whole entry): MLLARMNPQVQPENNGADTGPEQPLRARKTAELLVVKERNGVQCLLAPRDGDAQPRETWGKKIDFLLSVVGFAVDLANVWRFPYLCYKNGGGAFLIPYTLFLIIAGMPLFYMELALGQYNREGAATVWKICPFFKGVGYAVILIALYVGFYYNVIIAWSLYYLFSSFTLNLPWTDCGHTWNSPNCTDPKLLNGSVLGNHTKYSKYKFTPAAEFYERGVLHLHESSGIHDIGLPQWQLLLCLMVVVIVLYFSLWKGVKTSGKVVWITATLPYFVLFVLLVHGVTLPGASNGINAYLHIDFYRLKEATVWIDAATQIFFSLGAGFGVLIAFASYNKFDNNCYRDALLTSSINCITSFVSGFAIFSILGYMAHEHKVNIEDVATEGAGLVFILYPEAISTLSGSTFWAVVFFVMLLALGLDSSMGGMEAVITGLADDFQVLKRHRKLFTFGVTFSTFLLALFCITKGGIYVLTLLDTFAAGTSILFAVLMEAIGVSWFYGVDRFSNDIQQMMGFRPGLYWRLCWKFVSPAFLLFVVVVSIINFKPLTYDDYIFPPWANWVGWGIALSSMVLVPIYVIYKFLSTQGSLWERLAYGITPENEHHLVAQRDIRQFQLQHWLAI
Sequence of Sodium-dependent dopamine transporter (Q01959 whole entry): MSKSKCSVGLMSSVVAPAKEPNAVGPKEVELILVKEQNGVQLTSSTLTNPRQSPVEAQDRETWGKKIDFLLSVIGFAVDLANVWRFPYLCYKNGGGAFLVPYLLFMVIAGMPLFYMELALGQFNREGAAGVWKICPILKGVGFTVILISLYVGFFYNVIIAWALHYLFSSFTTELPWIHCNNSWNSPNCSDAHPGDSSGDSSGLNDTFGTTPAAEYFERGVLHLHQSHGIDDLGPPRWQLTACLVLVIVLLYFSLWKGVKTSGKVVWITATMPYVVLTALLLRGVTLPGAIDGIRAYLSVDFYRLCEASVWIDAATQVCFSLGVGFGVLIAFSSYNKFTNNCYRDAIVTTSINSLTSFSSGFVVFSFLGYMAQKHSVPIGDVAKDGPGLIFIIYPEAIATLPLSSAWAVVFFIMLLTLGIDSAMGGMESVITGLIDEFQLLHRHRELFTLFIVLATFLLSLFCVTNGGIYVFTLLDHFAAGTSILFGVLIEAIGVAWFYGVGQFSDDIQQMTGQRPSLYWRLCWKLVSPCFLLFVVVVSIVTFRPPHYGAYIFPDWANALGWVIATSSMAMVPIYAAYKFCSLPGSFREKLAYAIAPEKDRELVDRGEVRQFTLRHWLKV

Work on `COC(=O)C1C2CC[C@H](C[C@@H]1c1ccc(Cl)cc1)N2C` (stereo partly drawn) yielded an Activity (Mus musculus [1]) of 462%, an Activity (Mus musculus [2]) of 1426% and an Activity (Mus musculus [3]) of 1201%. It also gave an Activity (Mus musculus [4]) of 235%, an Activity (Mus musculus [5]) of 645% and an Activity (Mus musculus [6]) of 958%. The Activity (Mus musculus [7]) was 1892%, the Activity (Mus musculus [8]) was 1507% and the Activity (Mus musculus [9]) was -26%. It also gave an Activity (Mus musculus [10]) of 53%, an Activity (Mus musculus [11]) of 91% and an Activity (Mus musculus [12]) of 17%. It also gave an ED50 (Rattus norvegicus [13]) of 0.13 mg/kg, an Activity (Rattus norvegicus [14]) of 44% and an Activity (Rattus norvegicus [15]) of 100%. The Activity (Mus musculus [16]) was “Active”, the Activity (Mus musculus [17]) was “Active” and the Activity (Mus musculus [18]) was “Active”. The Activity (Mus musculus [19]) was “Active”, the Activity (Mus musculus [20]) was “Active” and the Activity (Mus musculus [21]) was “Active”. For the same molecule, the Activity (Mus musculus [22]) was “Active”, the pIC50 [23] was 8.96 and the ED50 (Mus musculus [24]) was 0.2 mg/kg. It also gave an Activity (Mus musculus [25]) of 416%, an Activity (Mus musculus [26]) of -36% and an Activity (Mus musculus [27]) of 589%. The Activity (Mus musculus [28]) was 1643% and the Activity (Rattus norvegicus [29]) was 50%.
Molecule `COC(=O)[C@@H]1C2CCC(C[C@H]1c1ccc(F)cc1)N2C` (stereo partly drawn) has an ED50 (Rattus norvegicus [13]) of 5.66 mg/kg, an Activity (Rattus norvegicus [30]) of 0% and an Activity (Rattus norvegicus [31]) of 29%. The Activity (Rattus norvegicus [32]) was 38%, the Activity (Rattus norvegicus [33]) was 86% and the Activity (Mus musculus [19]) was “Active”. The Activity (Mus musculus [34]) was “Active”, the Activity (Mus musculus [35]) was “Active” and the Activity (Mus musculus [36]) was “Active”. For the same molecule, the Activity (Mus musculus [20]) was “Active”, the Activity (Mus musculus [37]) was “Active” and the pIC50 [38] was 5.92. For the same molecule, the pKi [38] was 6.13, the ED50 (Mus musculus [24]) was 15.6 mg/kg and the Activity (Mus musculus [25]) was 26%. For the same molecule, the Activity (Mus musculus [26]) was -23%, the Activity (Mus musculus [27]) was 16% and the Activity (Mus musculus [28]) was 41%. The Activity (Mus musculus [39]) was 137%, the Activity (Mus musculus [40]) was 105% and the Activity (Mus musculus [41]) was 146%. The Activity (Mus musculus [42]) was 58%, the Activity (Mus musculus [43]) was 362% and the Activity (Mus musculus [44]) was 187%. The Activity (Mus musculus [45]) was 215%, the Activity (Mus musculus [46]) was 66% and the Activity (Mus musculus [47]) was 575%. For the same molecule, the Activity (Mus musculus [48]) was 340%, the Activity (Mus musculus [49]) was 194% and the Activity (Mus musculus [50]) was 73%. It also gave a pIC50 [51] of 5.30 and a pKi [51] of 6.34.
`COC(=O)[C@H]1[C@@H](OC(=O)c2ccccc2)C[C@@H]2CC[C@H]1N2C` [COCAINE] was tested, and the ED50 (Rattus norvegicus [13]) was 2.44 mg/kg, the Activity (Rattus norvegicus [30]) was 21% and the Activity (Rattus norvegicus [52]) was 32%. For the same molecule, the Activity (Rattus norvegicus [31]) was 59%, the Activity (Rattus norvegicus [32]) was 82% and the Activity (Rattus norvegicus [33]) was 97%. For the same molecule, the Activity (Mus musculus [53]) was “Active”, the Activity (Mus musculus [36]) was “Active” and the Activity (Mus musculus [20]) was “Active”. For the same molecule, the Activity (Mus musculus [54]) was “Active”, the ED50 (Mus musculus [24]) was 10 mg/kg and the Activity (Mus musculus [25]) was 27%. For the same molecule, the Activity (Mus musculus [26]) was 14%, the Activity (Mus musculus [27]) was -17% and the Activity (Mus musculus [28]) was -9%. For the same molecule, the Activity (Mus musculus [39]) was 127%, the Activity (Mus musculus [40]) was 24% and the Activity (Mus musculus [41]) was 10%. The Activity (Mus musculus [42]) was -21%, the Activity (Mus musculus [43]) was 341% and the Activity (Mus musculus [44]) was 100%. It also gave an Activity (Mus musculus [45]) of -10%, an Activity (Mus musculus [46]) of 16% and an Activity (Mus musculus [47]) of 269%. It also gave an Activity (Mus musculus [48]) of 391%, an Activity (Mus musculus [49]) of 255% and an Activity (Mus musculus [50]) of 91%.
